Test results from publication PMC4946153 (Cardiovascular Diabetology, 2016).
Read-outs that look alike come from different tables or passages of the source.

Tests used:
[1] = tested on: H9c2-E2 cells (H9c2 overexpressing the human insulin receptor); assay: Caspase 3/7 activity assay in H9c2-E2 cells; type: cell-based, rat; conditions: for prevention of H2O2-induced caspase 3/7 activation (in words): 100 nM + 800 µM H2O2, 2 h
Experimental: (§1) The cardiac mouse cell line HL-1, a cell line derived from the AT-1 mouse atrial cardiomyocyte tumour lineage, was kindly provided by Dr. W.C. Claycomb (Louisiana State University, New Orleans, LA, USA). HL-1 cells were cultivated in Claycomb medium containing 10 % fetal calf serum (FCS), 100 µM norepinephrine and 4 mM L-glutamine (all from Sigma-Aldrich, Munich, Germany) on gelatine/fibronectin coated plates. H9c2 cells (ATCC CRL-1446), stably transfected with the human IR in our laboratory (H9c2-E2) were cultivated in DMEM, low glucose containing 10 % FCS, 1 % non–essential amino acids and 600 µg/ml G418 (all from Invitrogen, Carlsbad, CA, USA). Commercially available iPS-derived human cardiomyocytes (Cor.4U®) (Axiogenesis, Cologne, Germany) were cultured in Cor.4U® Complete Medium containing 10 % FCS on fibronectin–coated 96-well E-Plate (Acea Biosciences, San Diego, CA, USA). The medium was changed twice daily. All cells were incubated at 37 °C with 5 % CO2 in a humidified incubator.
Caspase 3/7 activity was then measured by the caspase-Glo® 3/7 assay system (Promega, Madison, Wisconsin, USA) as described in the manual. After 2 h incubation period caspase 3/7 activity was analysed by measuring the luminescence in an Infinite 200 plate reader (Tecan, Männedorf, Switzerland).

[2] = tested on: adult rat ventricular cardiomyocytes (ARVM); assay: Contractility of paced adult rat ventricular cardiomyocytes; type: cell-based; conditions: 100 nM, 5 min pre-treatment, ARVM paced 1 Hz, 15 V, 0.5 ms, 37 °C; vs. control; n = 4
Experimental: Adult rat ventricular cardiomyocytes (ARVM) were isolated from wild-type Lewis rats (Lew/Crl) as previously described. […] Subsequently, ARVM were cultivated over-night in DMEM/F12 containing 33 µM biotin and 17 µM pantothenate (Invitrogen, Carlsbad, CA, USA). […] Furthermore, untreated ARVM or ARVM treated with 10 nM isoproterenol (Sigma-Aldrich, Munich, Germany) were immediately measured. ARVM were paced with bipolar pulses in a contractility and fluorescence system (IonOptix, Milton, MA, USA) at 15 V, 1 Hz, 0.5 ms, at 37 °C for up to 10 min and 10–14 contractions of at least 10 rod–shaped ARVM per condition were recorded. Sarcomeric shortening, shortening rate and re-lengthening rate were calculated using the IonWizard software (IonOptix, Milton, MA, USA). […] Afterwards, ARVM were treated as described above. […] Microscopic pictures were taken randomly with at least 10 pictures per condition. As a positive control 200 µM H2O2 was utilised. For each condition at least 400 cells were counted per experiment.

[3] = tested on: Cor.4U human iPSC-derived cardiomyocytes; assay: Beating-rate by impedance measurement in human Cor.4U cells; type: cell-based; conditions: 500 nM; for time to maximum beating-rate / beating-rate, area under the curve for 6 h: n = 4; for beating-rate, area under the curve for 6 h: vs. basal
Experimental: as §1
Cor.4U® cardiomyocytes were seeded at a density of 30,000 cells per well. From day 3 on the cells were cultured in Iscove’s Basal Medium containing 1 % GlutaMAX supplement (both Life Technologies, Carlsbad, CA, USA) and 2 µg/ml Ciprobay (Bayer, Leverkusen, Germany). […] Impedance of each well was measured with the RTCA Cardio xCELLigence Analyser (Acea Biosciences, San Diego, CA, USA) during the whole experiment. Beating-rate and cell index were analysed by RTCA cardio software (Acea Biosciences, San Diego, CA, USA).

[4] = tested on: Akt(Ser473) phosphorylation in HL-1 cells; assay: Akt(Ser473) phosphorylation in HL-1 cells, Western blot; type: cell-based, mouse; conditions: for Akt(Ser473) phosphorylation level: vs. Ins and other analogues
Experimental: as §1

[5] = tested on: HL-1 cells; assay: 2-deoxy-D-glucose uptake in HL-1 cardiomyocytes; type: cell-based, mouse; conditions: 200 nM, 60 min
Experimental: as §1
HL-1 cells were seeded at a density of 400,000 cells per well in a 12-well plate. […] Incorporated glucose was measured by scintillation counting of the cell lysates in a liquid scintillation counter (Beckman Coulter, Pasadena, CA, USA). Values were corrected for non-specific uptake as measured by incubation with L-[^14C]glucose (PerkinElmer, Waltham, MA, USA).

[6] = tested on: Akt(Thr308) phosphorylation in HL-1 cells; assay: Akt(Thr308) phosphorylation in HL-1 cells, Western blot; type: cell-based, mouse; conditions: n = 3
Experimental: as §1

[7] = tested on: cardiovascular outcome in patients; conditions: DEVOTE interim analysis; ref [16], [17]; cited from earlier work
Description: (§2) So far, finalised clinical data is only available for IGla, whereas for IDeg the investigation is still ongoing.

[8] = tested on: insulin receptor (membrane embedded, M-IR; CHO-cells overexpressing the IR); assay: Competition binding, membrane embedded IR (M-IR)
Experimental: Briefly, CHO-cells overexpressing the IR were collected and re-suspended in ice-cold 2.25 STM buffer (2.25 M sucrose, 5 mM Tris–HCl pH 7.4, 5 mM MgCl2, complete protease inhibitor) and disrupted using a Dounce homogenizer followed by sonication. The homogenate was overlaid with 0.8 STM buffer (0.8 M sucrose, 5 mM Tris–HCl pH 7.4, 5 mM MgCl2, complete protease inhibitor) and ultra-centrifuged for 90 min at 100,000g. Plasma membranes at the interface were collected and washed twice with phosphate buffered saline (PBS). The final pellet was re-suspended in dilution buffer (50 mM Tric-HCl pH 7.4, 5 mM MgCl2, complete protease inhibitor) and again homogenised with a Dounce homogenizer. Competition binding experiments were performed in a binding buffer (50 mM Tris–HCl, 150 mM NaCl, 0.1 % BSA, complete protease inhibitor, adjusted to pH 7.8) in 96-well microplates. In each well 2 µg isolated membrane were incubated with 0.25 mg wheat germ agglutinin polyvinyltoluene polyethylenimine scintillation proximity assay (SPA) beads. […] The radioactivity was measured at equilibrium in a microplate scintillation counter (Wallac Microbeta, Freiburg, Germany).
(§3) Results are expressed as mean values ± SEM of at least three independent experiments. For statistical analysis Graphpad Prism v5.00 (Graphpad Software, San Diego, CA, USA) was used. One-way ANOVA was performed to determine significance between conditions, with level of significance chosen at p < 0.05. In case of IC50 determinations for binding, a non-parametric Kruskal–Wallis testing was performed, again with level of significance chosen at p < 0.05.

[9] = target: insulin receptor (solubilised, S-IR); assay: Competition binding, solubilised IR (S-IR)
Experimental: Binding on a freshly solubilised IR preparation (S-IR) was performed as previously described with some modifications. Aliquots of membranes were incubated at 4 °C for 30 min in a solubilisation buffer (20 mM HEPES–NaOH, 100 mM NaCl, 10 mM MgSO4, 1 % (w/v) n-Dodecyl-ß-D-maltoside (Sigma-Aldrich, Munich, Germany), adjusted to pH 7.8 and Complete TM Protease Inhibitor cocktail). Thereafter, ultra-centrifugation was performed at 100,000g for 30 min and 4 °C to remove non–solubilised debris. Protein concentration in the supernatant was adjusted to 0.15 mg/ml with binding buffer (100 mM HEPES–NaOH, 100 mM NaCl, 10 mM MgSO4, 0.025 % (v/v) Tween-20, adjusted to pH 7.8 and complete TM protease inhibitor cocktail). To streptavidin SPA beads (5 mg in […] binding buffer), 50 µl of an anti-IR alpha-antibody 83-7 (Abcam, Cambridge, UK) was added. After incubation for 30 min, SPA beads were once washed and finally re-suspended in 500 µl binding buffer. A solution of solubilised receptor (1 ml, 0.15 mg/ml) was added and incubated for further 60 min, before washing and resuspension in 1.5 ml.
as §3

[10] = tested on: cardiovascular effects in patients; conditions: ORIGIN trial, ref [15]; cited from earlier work
Description: as §2

[11] = 200 nM, 60 min, HL-1, normalised to tubulin, n = 4-5

Compound: OO [H2O2, reference compound]
- induction of caspase 3/7 activity ([1]; 800 µM H2O2, 2 h, H9c2-E2, vs. basal, n = 5-6): 4.8 fold
- induction of caspase 3/7 activity (in words) ([1]; H2O2 challenge, H9c2-E2): fivefold increase

Compound: insulin
- decrease of caspase 3/7 activity compared to H2O2 treatment alone ([1]; 100 nM insulin + 800 µM H2O2, 2 h, H9c2-E2, n = 5-6): up to 70.3%
- increase in departure velocity (shortening rate) [2]: ~ twofold
- increase in return velocity (re-lengthening rate) [2]: ~ threefold
- increase in sarcomeric shortening [2]: ~ 2.5 fold
- time to maximum beating-rate [3]: 10 min
- beating-rate, area under the curve for 6 h [3]: significant increase

Compound: insulin degludec [IDeg]
- Akt(Ser473) phosphorylation level ([4]; 200 nM, 5 min, HL-1, normalised to tubulin, n = 4-5): significantly lower
- Akt(Ser473) phosphorylation level ([4]; 200 nM, 10 min, HL-1, normalised to tubulin, n = 4-5): significantly lower
- Akt(Ser473) phosphorylation level compared to IGla [4, 11]: still significantly lower
- Akt(Ser473) phosphorylation level compared to Ins and IGlaM1 [4, 11]: similar
- Akt(Ser473) phosphorylation ([4]; HL-1, 5- and 10-min incubation, compared to insulin, insulin glargine and M1): lower
- prevention of H2O2-induced caspase 3/7 activation (in words) ([1]; H9c2-E2): same potency to prevent caspase 3/7 activation as Ins
- increase in departure velocity (shortening rate) [2]: ~ twofold
- increase in return velocity (re-lengthening rate) [2]: ~ threefold
- increase in sarcomeric shortening [2]: ~ 2.5 fold
- glucose uptake, comparison between insulins [5]: no difference
- Akt(Thr308) phosphorylation, kinetic ([6]; 200 nM, 5, 10 and 60 min, HL-1, same kinetic as for Akt(Ser473)): The same kinetic was observed
- Akt(Thr308) phosphorylation ([6]; 200 nM, 5- and 10-min incubation, HL-1, compared to insulin, insulin glargine and M1): lower
- onset of action on beating-rate [3]: slower onset of action
- time to maximum beating-rate [3]: 20 min
- beating-rate, area under the curve for 6 h [3]: significant increase
- major adverse cardiovascular outcome vs IGla [7]: non-inferiority to IGla
- IR affinity (in words) [8]: very low binding affinities
- IC50 ([8]; 2 µg isolated membrane, WGA-PVT-PEI SPA beads, 100 pM [125I]-human Ins, pH 7.8, 12 h at 23 °C, mean ± SEM, at least four independent experiments in quadruplicates, read-out: IR affinity IC50): 19.6 ± 1.1 nM
- IR affinity (in words) ([8]; listed as Insulin degludec): significant lower IR affinity
- IC50 fold higher compared to Ins ([8]; ratio of IC50 vs. Ins): 23.6 fold
- binding affinity compared to Ins ([8]; relative to Ins): ~ 4%
- IC50 ([9]; anti-IR antibody 83-7 SPA, 100 pM [125I]-insulin, pH 7.8, 12 h at 23 °C, mean ± SEM, at least six times on different days, quadruplicates, read-out: IR affinity IC50): 3.12 ± 0.42 nM
- IC50 fold higher compared to Ins ([9]; ratio of IC50 vs. Ins): 5.4 fold
- binding affinity relative to human insulin ([9]; this paper): ~ 18.6%

Compound: insulin glargine [IGla]
- prevention of H2O2-induced caspase 3/7 activation (in words) ([1]; H9c2-E2): same potency to prevent caspase 3/7 activation as Ins
- increase in departure velocity (shortening rate) [2]: ~ twofold
- increase in return velocity (re-lengthening rate) [2]: ~ threefold
- increase in sarcomeric shortening [2]: ~ 2.5 fold
- glucose uptake, comparison between insulins [5]: no difference
- time to maximum beating-rate [3]: 10 min
- beating-rate, area under the curve for 6 h [3]: significant increase
- cardiovascular effects vs standard care treatment [10]: non-inferiority
